Assay results as given in patent US20080081801A1, “PORPHYRIN OXYGEN INFUSION FOR INCREASING CONCENTRATIONS IN TUMOR TISSUES” (priority 2002, published 2008).

Test system: Ascites hepatoma LY80
Assay: Oxygen partial pressure in tumor tissues of tumor-bearing rats after intra-arterial injection of the sample (phosphorescence quenching, PdPor, OxySpot)
Assay type: in vivo, Donryu rats
Conditions: oxygen-saturated sample
Experimental: Animals with cancer were prepared by transplanting tumor cells in desired sites of laboratory animals such as, for example, rats, hamsters, rabbits or beagles.
Rats were bred for several days until tumors develop and then subjected to experiments under anesthesia (e.g., using Nembutal, diethyl ether or halothane anesthetic gas). Rats were intubated through the cervical trachea and ventilated under positive pressure by a respirator. A polyethylene catheter was inserted into a left carotid artery so that a distal end of the catheter is located at a position short of a bifurcation of the common iliac artery, and then backward cannulation was carried out to provide an administration rout of sample in the descending aorta.
The oxygen partial pressure in the tumor tissues may be determined by intravenously injecting a phosphorescent probe (palladium coproporphyrin (PdPor)), irradiating light, and monitoring a phosphorescence quenching time with an oxygen partial pressure monitor. PdPor is intravenously injected through a tail vein at 5-20 minutes before administration of the sample. […] The oxygen partial pressure in the tumor site of the right leg was measured at 5 to 30 points in air or an atmosphere containing 99% oxygen with a device for measurement of an oxygen partial pressure (e.g., OxySpot (Trademark) made by Medical System Corp.), and served as controls. […]

## bovine serum albumin: serum albumin, injected oxygen-saturated without porphyrin
  change in the oxygen partial pressure (PO2) in the tumor tissue: no change
